Data as given in publication PMC7044277 (Nature Communications, 2020).
“And” between values parts separate entries of the source, which are not always exact repeats. Equal values may be shown once.

Tests used:
DRD2 F1103.28L [1] = target: T1, DRD2 F1103.28L (Homo sapiens, UniProt P14416, F110L); assay: Gαi/o-mediated cAMP inhibition (GloSensor), mutant; assay type: cell-based
T1 construct: expressed in transfected cells; host or cells: HEK293T (ATCC CRL-11268)

DRD3 F1063.28A [2] = target: T2, DRD3 F1063.28A (Homo sapiens, UniProt P35462, F106A); assay: cell-based; assay type: cell-based
T2 sequence (P35462 whole entry F106A): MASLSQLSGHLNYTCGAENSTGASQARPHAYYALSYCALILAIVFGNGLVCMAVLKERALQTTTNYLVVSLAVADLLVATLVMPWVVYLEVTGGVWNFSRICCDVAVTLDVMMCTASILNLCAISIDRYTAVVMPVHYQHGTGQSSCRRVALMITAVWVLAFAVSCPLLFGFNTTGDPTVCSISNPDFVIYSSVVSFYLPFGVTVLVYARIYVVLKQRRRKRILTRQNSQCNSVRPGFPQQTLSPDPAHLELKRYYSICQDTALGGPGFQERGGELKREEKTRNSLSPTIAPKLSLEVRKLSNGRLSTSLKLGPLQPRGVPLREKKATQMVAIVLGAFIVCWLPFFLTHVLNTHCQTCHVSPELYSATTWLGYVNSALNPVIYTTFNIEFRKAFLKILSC

DRD3 wild-type = DRD3 wild-type (Homo sapiens, UniProt P35462); assay: Radioligand competition binding, [3H]-N-methylspiperone; conditions: DRD3; [3H]-methylspiperone (0.8-1.0 nM); read-out: Ki
Chain of DRD3 wild-type (P35462 whole entry): as the sequence (P35462 whole entry F106A) above, with A106F counted along it

DRD2 F1103.28A [3] = target: T3, DRD2 F1103.28A (Homo sapiens, UniProt P14416, F110A); assay: Gαi/o-mediated cAMP inhibition (GloSensor), mutant; assay type: cell-based; design: expressed in transfected cells; host or cells: HEK293T (ATCC CRL-11268)
T3 sequence (P14416 whole entry F110A): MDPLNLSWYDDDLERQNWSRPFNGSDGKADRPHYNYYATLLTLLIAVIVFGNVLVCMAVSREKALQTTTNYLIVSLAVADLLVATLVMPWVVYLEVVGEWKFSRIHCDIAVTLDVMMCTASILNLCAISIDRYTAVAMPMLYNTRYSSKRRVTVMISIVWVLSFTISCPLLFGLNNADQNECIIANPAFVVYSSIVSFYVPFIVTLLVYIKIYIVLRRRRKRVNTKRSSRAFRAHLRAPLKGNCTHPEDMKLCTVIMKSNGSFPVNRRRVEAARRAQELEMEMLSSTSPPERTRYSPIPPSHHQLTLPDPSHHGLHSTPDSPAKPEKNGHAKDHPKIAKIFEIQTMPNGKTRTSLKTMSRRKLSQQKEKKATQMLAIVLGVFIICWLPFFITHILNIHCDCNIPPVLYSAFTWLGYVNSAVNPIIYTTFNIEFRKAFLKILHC

DRD2 F1103.28A [4] = target: T3, DRD2 F1103.28A; assay type: binding; design: expressed in transfected cells; host or cells: HEK293T (ATCC CRL-11268)
DRD2 (D2 long receptor) [5] = target: T4, DRD2 (D2 long receptor) (Homo sapiens, UniProt P14416); assay: β-arrestin2 recruitment (Tango), HTLA cells; assay type: cell-based; conditions: for response, Fig_S11e dose-response source data: replicate values
T4 sequence (P14416 whole entry): as the sequence (P14416 whole entry F110A) above, with A110F counted along it

[6] = target: DRD2 (D2 long receptor) wild-type (Homo sapiens, UniProt P14416); assay: Radioligand competition binding, [3H]-N-methylspiperone, HEK293T membranes; conditions: DRD2; [3H]-methylspiperone (0.8-1.0 nM); read-out: Ki
Chain of DRD2 (D2 long receptor) wild-type (P14416 whole entry): as the sequence (P14416 whole entry F110A) above, with A110F counted along it

DRD2 F1103.28A [7] = target: T3, DRD2 F1103.28A; assay: β-arrestin2 recruitment (Tango), mutant; assay type: cell-based; design: expressed in transfected cells; host or cells: HEK293T (ATCC CRL-11268)
DRD2 (D2 long receptor) [8] = target: T4, DRD2 (D2 long receptor); assay: Gαi/o-mediated cAMP inhibition (GloSensor split-luciferase cAMP reporter), HEK293T; assay type: cell-based; conditions: for response, Fig_S11d dose-response source data: replicate values;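 for all read-outs here: compounds applied 15 min at room temperature, then luciferin plus 400 nM isoproterenol to raise cAMP through endogenous β2-adrenergic receptors, luminescence read 15 min later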
DRD4 (D4.4 variant) [9] = target: T5, DRD4 (D4.4 variant) (Homo sapiens, UniProt P21917); assay: β-arrestin2 recruitment (Tango); assay type: cell-based; conditions: DRD4; Tango; read-out: EC50 ± SEM
T5 sequence (P21917 1-419): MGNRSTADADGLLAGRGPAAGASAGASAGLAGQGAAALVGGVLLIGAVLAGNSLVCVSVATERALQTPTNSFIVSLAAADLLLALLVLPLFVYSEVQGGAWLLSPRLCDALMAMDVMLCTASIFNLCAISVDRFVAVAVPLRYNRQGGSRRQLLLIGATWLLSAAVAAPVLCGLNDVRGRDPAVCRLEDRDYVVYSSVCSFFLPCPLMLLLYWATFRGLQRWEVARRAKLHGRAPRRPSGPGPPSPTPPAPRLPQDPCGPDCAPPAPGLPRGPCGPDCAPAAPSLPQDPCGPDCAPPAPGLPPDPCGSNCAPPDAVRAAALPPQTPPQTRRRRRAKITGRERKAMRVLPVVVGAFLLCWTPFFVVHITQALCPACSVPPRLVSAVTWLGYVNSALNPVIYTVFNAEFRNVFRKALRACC

DRD3 F1063.28A [10] = target: T2, DRD3 F1063.28A; assay: biochemical; assay type: binding
DRD2 F1103.28L [11] = target: T1, DRD2 F1103.28L; assay: β-arrestin2 recruitment (Tango), mutant; assay type: cell-based
DRD3 = DRD3 (Homo sapiens, UniProt P35462); assay: β-arrestin2 recruitment (Tango); assay type: cell-based; conditions: DRD3, Tango
Chain of DRD3 (P35462 whole entry): as the sequence (P35462 whole entry F106A) above, with A106F counted along it

[12] = target: T6, DRD4 (D4.4 variant) wild-type (Homo sapiens, UniProt P21917); assay: Radioligand competition binding, [3H]-N-methylspiperone; conditions: DRD4; [3H]-methylspiperone (0.8-1.0 nM); read-out: Ki
T6 sequence (P21917 1-419): T5 sequence (P21917 1-419)

DRD4 (D4.4 variant) [13] = target: T5, DRD4 (D4.4 variant); assay: Gαi/o-mediated cAMP inhibition (GloSensor); assay type: cell-based; conditions: DRD4; agonist, cAMP inhibition; read-out: EC50 ± SEM
[14] = read-out: Emax relative to quinpirole response

T1 sequence (P14416 whole entry F110L): as the sequence (P14416 whole entry F110A) above, with A110L counted along it

CCOc1cccc2cc(C(C)NCC3(O)CCCCCC3)oc12 (stereo not shown) [O4LE7]
EC50 (DRD2 F1103.28L [1]; DRD2 F1103.28L (b138 head prints DRD2 F1063.28L)): 3.61 ± 0.07 nM
Emax (DRD2 F1103.28L [1]; read-out: Emax relative to quinpirole response, DRD2 F1103.28L): 72.6%
EC50 (DRD3 F1063.28A [2]): > 10000 nM
Ki (DRD3 wild-type): 240 nM
EC50 (DRD2 F1103.28A [3]): > 10000 nM
Ki (DRD2 F1103.28A [4]; DRD2 F1103.28A, read-out: pKi ± SEM (converted)): 214 nM
affinity increase (binding enhanced), mutant vs wild type (DRD2 F1103.28A [4]; DRD2 Phe110^3.28Ala vs wild-type DRD2): 7.52 fold
EC50 (DRD2 (D2 long receptor) [5]; DRD2, β-arrestin2 recruitment (Tango), read-out: EC50 ± SEM): 44.6 ± 4.71 nM
response, Fig_S11e dose-response source data (DRD2 (D2 long receptor) [5]; Log[Drug] -6.52): 70.7144
response, Fig_S11e dose-response source data (DRD2 (D2 long receptor) [5]; Log[Drug] -7): 60.0625 and 58.8888 and 58.966 and 44.6969 and 52.556 and 54.4002 and 47.2717 and 45.6897 and 52.8235
response, Fig_S11e dose-response source data (DRD2 (D2 long receptor) [5]; Log[Drug] -7.52): 37.663 and 37.8279 and 34.2682 and 29.2235 and 29.8377 and 33.7069 and 31.0328 and 28.5097 and 31.1567
response, Fig_S11e dose-response source data (DRD2 (D2 long receptor) [5]; Log[Drug] -8): 19.0993 and 25.2494 and 16.3411 and 14.3144 and 11.2312 and 12.8766 and 17.2566 and 18.2263 and 16.5156
response, Fig_S11e dose-response source data (DRD2 (D2 long receptor) [5]; Log[Drug] -8.52): 6.955 and 10.6803 and 8.41 and 5.811 and 4.949 and 5.989 and 8.148 and 9.142 and 8.777
response, Fig_S11e dose-response source data (DRD2 (D2 long receptor) [5]; Log[Drug] -9): 5.592 and 4.443 and 5.4634 and 4.207 and 4.266 and 4.232 and 6.141 and 5.2483 and 8.786
response, Fig_S11e dose-response source data (DRD2 (D2 long receptor) [5]; Log[Drug] -9.52): 4.527 and 4.325 and 4.4009 and 4.395 and 4.556 and 4.701 and 4.762 and 4.575 and 4.648
response, Fig_S11e dose-response source data (DRD2 (D2 long receptor) [5]; Log[Drug] -10): 3.636 and 4.222 and 3.934 and 4.061 and 4.088 and 4.136 and 4.898 and 3.74 and 4.41
response, Fig_S11e dose-response source data (DRD2 (D2 long receptor) [5]; Log[Drug] -10.52): 4.52 and 6.171 and 4.768 and 3.986 and 4.148 and 4.0514 and 3.608 and 3.803 and 4.57
response, Fig_S11e dose-response source data (DRD2 (D2 long receptor) [5]; Log[Drug] -11): 5.604 and 3.965 and 4.161 and 3.823 and 4.063 and 4.032 and 3.814 and 4.075 and 4.582
response, Fig_S11e dose-response source data (DRD2 (D2 long receptor) [5]; Log[Drug] -11.52): 3.3514 and 3.514 and 3.342 and 3.863 and 4.025 and 4.187 and 4.1 and 3.746 and 4.367
response, Fig_S11e dose-response source data (DRD2 (D2 long receptor) [5]; Log[Drug] -12): 4.706 and 3.881 and 4.189 and 3.844 (2×) and 3.873 and 3.954 and 3.594 and 3.602
Emax (DRD2 (D2 long receptor) [5]; HTLA, read-out: Emax relative to quinpirole response, DRD2, Tango): 71.8%
Ki [6]: 1580 nM
EC50 (DRD2 F1103.28A [7]): > 10000 nM
EC50 (DRD2 (D2 long receptor) [8]; DRD2, agonist, Gαi/o-mediated cAMP inhibition, read-out: EC50 ± SEM): 1.65 ± 1.05 nM
response, Fig_S11d dose-response source data (DRD2 (D2 long receptor) [8]; Log[Drug] -6.52): 96.8634
response, Fig_S11d dose-response source data (DRD2 (D2 long receptor) [8]; Log[Drug] -7): 95.598 and 91.4295 and 85.3505 and 88.3932 and 84.5729 and 79.5858 and 85.933 and 88.7083 and 90.2631
response, Fig_S11d dose-response source data (DRD2 (D2 long receptor) [8]; Log[Drug] -7.52): 86.7896 and 85.152 and 83.291 and 74.147 and 71.7381 and 81.1478 and 90.9653 and 82.4555 and 87.421
response, Fig_S11d dose-response source data (DRD2 (D2 long receptor) [8]; Log[Drug] -8): 74.0608 and 77.7579 and 74.8548 and 59.6561 and 53.4646 and 60.8794 and 74.9823 and 74.9154 and 83.8097
response, Fig_S11d dose-response source data (DRD2 (D2 long receptor) [8]; Log[Drug] -8.52): 64.5825 and 59.1734 and 57.1139 and 43.5468 and 40.7239 and 43.8667 and 54.9367 and 67.0577 and 71.5884
response, Fig_S11d dose-response source data (DRD2 (D2 long receptor) [8]; Log[Drug] -9): 50.9108 and 57.9824 and 64.8058 and 28.6043 and 24.1441 and 25.7626 and 68.5958 and 61.4569 and 59.9355
response, Fig_S11d dose-response source data (DRD2 (D2 long receptor) [8]; Log[Drug] -9.52): 29.7954 and 31.0609 and 40.6137 and 14.7533 and 4.309 and 6.285 and 34.6235 and 38.6026 and 45.7749
response, Fig_S11d dose-response source data (DRD2 (D2 long receptor) [8]; Log[Drug] -10): 30.912 and 22.4013 and 39.5964 and 4.779 and -4.2354 and 0.1871 and 39.589 and 34.2056 and 43.2671
response, Fig_S11d dose-response source data (DRD2 (D2 long receptor) [8]; Log[Drug] -10.52): 36.5196 and 13.1215 and 30.515 and 10.8765 and -4.6118 and 7.301 and 39.8732 and 28.9894 and 33.9548
response, Fig_S11d dose-response source data (DRD2 (D2 long receptor) [8]; Log[Drug] -11): 25.0067 and 7.067 and 19.399 and -4.2354 and -19.0273 and 3.763 and 32.3665 and 18.8244 and 27.4345
response, Fig_S11d dose-response source data (DRD2 (D2 long receptor) [8]; Log[Drug] -11.52): 11.5335 and 13.2455 and 15.2305 and 7.489 and 4.214 and 9.484 and 32.4836 and 21.3489 and 42.8324
response, Fig_S11d dose-response source data (DRD2 (D2 long receptor) [8]; Log[Drug] -12): 5.306 and -4.8923 and -12.733 and -1.883 and -0.2081 and -16.5056 and -3.2274 and 22.4524 and -2.0571
Emax (DRD2 (D2 long receptor) [8]; HEK-293T, read-out: Emax relative to quinpirole response, DRD2, cAMP inhibition): 95.2%
EC50 (DRD4 (D4.4 variant) [9]): > 10000 nM
Ki (DRD3 F1063.28A [10]): 417 nM
affinity decreased, mutant vs wild type (DRD3 F1063.28A [10]; DRD3 Phe106^3.28Ala vs wild-type DRD3): 1.75 fold
EC50 (DRD2 F1103.28L [11]): 504 nM
Emax (DRD2 F1103.28L [11]; [14]): 25.8%
EC50 (DRD3; read-out: EC50 ± SEM): 803 ± 265 nM
Emax (DRD3; [14]): 32.3%
Ki [12]: 4070 nM
EC50 (DRD4 (D4.4 variant) [13]): > 10000 nM
